Key:
Assay in all cases: relative viability (nuclei count vs DMSO), 5 days (fraction); higher = more cells survive
RAF265 + AZD7762 = compound: Cn1c(Nc2ccc(C(F)(F)F)cc2)nc2cc(Oc3ccnc(-c4ncc(C(F)(F)F)[nH]4)c3)ccc21 [RAF265] + NC(=O)Nc1cc(-c2cccc(F)c2)sc1C(=O)N[C@H]1CCCNC1 [AZD7762] (partner 0.2 µM)
Summary of the method: (§1)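 Dosing by pin tool came one day after lung cancer cell lines were seeded in 1536-well plates, using either one drug or a fixed anchor-drug dose plus five library-drug doses (not always all listed) in √10 steps. After 5 days, nuclei were counted on 4× images. Relative viability is treated-well nuclei count divided by vehicle-well nuclei count, and values are medians of duplicate plates.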

RAF265 + Vorinostat = compound: Cn1c(Nc2ccc(C(F)(F)F)cc2)nc2cc(Oc3ccnc(-c4ncc(C(F)(F)F)[nH]4)c3)ccc21 [RAF265] + O=C(CCCCCCC(=O)Nc1ccccc1)NO [Vorinostat] (partner 1 µM)
Summary of the method: as §1

RAF265 + Decitabine = compound: Cn1c(Nc2ccc(C(F)(F)F)cc2)nc2cc(Oc3ccnc(-c4ncc(C(F)(F)F)[nH]4)c3)ccc21 [RAF265] + Nc1ncn([C@H]2C[C@H](O)[C@@H](CO)O2)c(=O)n1 [Decitabine] (partner 2 µM)
Summary of the method: as §1

Doramapimod + Navitoclax = compound: Cc1ccc(-n2nc(C(C)(C)C)cc2NC(=O)Nc2ccc(OCCN3CCOCC3)c3ccccc23)cc1 [Doramapimod] + CC1(C)CCC(c2ccc(Cl)cc2)=C(CN2CCN(c3ccc(C(=O)NS(=O)(=O)c4ccc(N[C@H](CCN5CCOCC5)CSc5ccccc5)c(S(=O)(=O)C(F)(F)F)c4)cc3)CC2)C1 [Navitoclax] (partner 0.5 µM)
Summary of the method: as §1

Cell Line	relative viability (RAF265 + AZD7762; first compound 0.01 µM)	relative viability (RAF265 + AZD7762; first compound 0.03162 µM)	relative viability (RAF265 + AZD7762; first compound 0.1 µM)	relative viability (RAF265 + AZD7762; first compound 0.3162 µM)	relative viability (RAF265 + AZD7762; first compound 1 µM)	relative viability (RAF265 + Vorinostat; first compound 0.01 µM)	relative viability (RAF265 + Vorinostat; first compound 0.03162 µM)	relative viability (RAF265 + Vorinostat; first compound 0.1 µM)	relative viability (RAF265 + Vorinostat; first compound 0.3162 µM)	relative viability (RAF265 + Vorinostat; first compound 1 µM)	relative viability (RAF265 + Decitabine; first compound 0.01 µM)	relative viability (RAF265 + Decitabine; first compound 0.03162 µM)	relative viability (RAF265 + Decitabine; first compound 0.1 µM)	relative viability (RAF265 + Decitabine; first compound 0.3162 µM)	relative viability (RAF265 + Decitabine; first compound 1 µM)	relative viability (Doramapimod + Navitoclax; first compound 0.02 µM)	relative viability (Doramapimod + Navitoclax; first compound 0.06325 µM)	relative viability (Doramapimod + Navitoclax; first compound 0.2 µM)	relative viability (Doramapimod + Navitoclax; first compound 0.6325 µM)	relative viability (Doramapimod + Navitoclax; first compound 2 µM)
EMC-BAC-2	1.09	1.03	0.675	0.724	0.486	0.449	0.359	0.306	0.141	0.103	1.05	0.842	0.958	0.832	0.547	1.18	1.17	1.16	1.25	0.99
NCI-H1755	0.548	0.475	0.483	0.405	0.425	0.8	0.663	0.694	0.579	0.476	0.693	0.661	0.728	0.723	0.642	0.997	1	1	1.06	0.968
NCI-H1993	0.784	0.82	0.791	0.602	0.635	0.9	0.902	0.756	0.823	0.768	0.615	0.644	0.561	0.544	0.624	0.952	0.749	0.966	0.918	0.834
NCI-H23	0.309	0.263	0.228	0.182	0.169	0.701	0.496	0.39	0.248	0.229	0.335	0.317	0.258	0.266	0.175	0.905	0.794	0.763	0.882	0.832
NCI-H1437	1.08	1.13	1.2	1.15	1.1	0.823	0.778	0.947	0.887	0.715	0.613	0.622	0.571	0.661	0.574	1.09	1.1	1.16	1.09	1.05
NCI-H2405	0.849	0.723	0.634	0.549	0.326	1.02	0.888	1.08	0.683	0.465	0.825	0.776	0.727	0.607	0.448	0.901	0.831	0.812	1.33	0.804
NCI-H838	0.865	0.953	0.964	1.03	0.841	0.735	0.716	0.72	0.691	0.632	0.516	0.49	0.494	0.466	0.391	1.16	1.19	1.26	1.32	1.12
NCI-H1734	0.545	0.516	0.437	0.325	0.217	0.801	0.715	0.731	0.536	0.322	0.515	0.424	0.47	0.41	0.304	0.723	0.799	0.692	0.77	0.572

— the supplement of paper PMC10307832
